“And” between values parts separate entries of the source, which are not always exact repeats. Equal values may be shown once.
What was measured:
[1] = system: C6 rat glioma cells; experiment: In vitro boron uptake in C6 cells; assay type: cell-based; conditions: Figure S1
Method: (§1) For the in vitro ^10B uptake study, B16 mouse melanoma cells, C6 rat glioma cells, and F98 rat glioma cells were used. B16 and C6 cells were used for in vitro testing at Osaka Prefecture University. Based on results from initial in vitro screening, the in vitro ^10B uptake study using F98 glioma cells were performed at Osaka Medical College. Four hundred thousand cells were seeded in a tissue culture dish (100 × 20 mm; Becton Dickinson, Franklin Lakes, NJ, USA) with DMEM supplemented with 10% FBS and 10% penicillin and streptomycin at 37 °C in a 5% CO2 atmosphere. After incubation for 4 days at 37 °C, the medium was removed, and DMEM with 10% FBS containing 1 mM KA-BSH, BSH, or BPA was added to each dish. The cells were incubated for an additional 24 h at 37 °C. The medium was then removed, and the cells were washed twice with 4 °C phosphate-buffered saline (PBS) and detached with trypsin–ethylenediamine tetraacetic acid solution. PBS was then added, and cells were digested overnight with 1 N nitric acid solution (Wako Pure Chemical Industries, Osaka, Japan), and ^10B uptake was determined by inductively coupled plasma atomic emission spectrometry (ICP-AES) using an iCAP6000 emission spectrometer (Hitachi High-Technologies, Tokyo, Japan).

[2] = system: B16 mouse melanoma cells; experiment: In vitro boron uptake in B16 cells; assay type: cell-based; conditions: Figure S1
Method: as §1

[3] = system: F98 glioma bearing rats; experiment: Biodistribution in F98 glioma bearing rats (ICP-AES); assay type: in vivo, rat; conditions: iv
Text: All animal experimental procedures were approved by the Animal Use Review Board and Ethical Committee of Osaka Medical College (No. 25092, 28 October 2015) and Kyoto University Research Reactor Institute (KURRI, No. 25030-13, 1 April 2015), and performed following the Guide for the Care and Use of Laboratory Animals. Eight-week-old, male Fischer 344 rats weighing between 200 and 250 g were used (Japan SLC, Inc. Shizuoka, Japan). Rats were anesthetized with an intraperitoneal (ip) injection of a mixture of medetomidine 0.15 mg, midazolam 2 mg, and butorphanol 2.5 mg/kg body weight (bw). The head of each rat was fixed with a stereotactic frame (Model 900; David Kopf Instruments, Tujunga, CA, USA). The scalp was incised at the midline and a small burr hole was drilled into the skull (1 mm posterior and 4 mm right-lateral to the bregma), using an electric drill. And then, F98 glioma cells were injected into the brain using a 25 µL Hamilton microsyringe with a 26-gauge needle (model 1700 RN, Hamilton Bonaduz AG, Bonaduz, Switzerland). The needle was inserted at a 5 mm depth from the skull and F98 cells were diluted in 10 µL of DMEM containing low-gelling temperature agarose at a concentration of either 10^3 for therapeutic experiments or 10^5 cells for biodistribution experiments. They were injected over 30 s using an automatic infuser pump. The needle entry hole was immediately sealed with bone wax and the incised scalp was closed with 3-0 silk sutures (Ethicon, North Ryde, NSW). After surgery, all animals were given atipamezole hydrochloride (0.15 mg/kg bw, ip).
Biodistribution studies were performed in Fischer rats bearing intracerebral implants of F98 rat glioma cells. 10–13 days after tumor implantation of 10^5 F98 glioma cells, when signs of a progressively growing tumor were evident (weight loss, lethargy, hunching, and ataxia), biodistribution studies were initiated at which time the animals had tumors weighing 90–180 mg. […] To compare its biodistribution with that of BPA or BSH, another group of rats received an iv injection of BPA at a concentration of 10 mg ^10B/kg bw or BSH at a concentration of 30 mg ^10B/kg bw. Biodistribution was determined 1 and 3 h after termination of iv injection. Animals were euthanized by an overdose of sevoflurane following which tumors and normal tissues, consisting of ipsilateral brain, contralateral brain, blood, heart, lung, liver, spleen, kidney, skin, and muscle, were removed and weighed for ^10B determination by ICP-AES.

“S-(2-(5-hydroxy-4-oxo-4H-pyran-2-yl) methyl) Thioundecahydro-Closo- Dodecaborate (2-) Disodium Salt [KA-BSH]” was tested, and the “boron uptake into cancer cells” value [1] was “taken up into cancer cells”, the “boron uptake into cancer cells” value [2] was “taken up into cancer cells” and the “10B concentration, Blood” value ([3]; 10 mg 10B/kg, 1 h) was 4.71 µg 10B/g. The “10B concentration, Contralateral brain” value ([3]; 10 mg 10B/kg, 1 h) was 0.24 µg 10B/g, the “10B concentration, Heart” value ([3]; 10 mg 10B/kg, 1 h) was 1.18 µg 10B/g and the “10B concentration, Ipsilateral brain” value ([3]; 10 mg 10B/kg, 1 h) was 0.29 µg 10B/g. The “10B concentration, Liver” value ([3]; 10 mg 10B/kg, 1 h) was 5.15 µg 10B/g, the “10B concentration, Lung” value ([3]; 10 mg 10B/kg, 1 h) was 4.31 µg 10B/g and the “10B concentration, Muscle” value ([3]; 10 mg 10B/kg, 1 h) was 0.63 µg 10B/g. The “10B concentration, Skin” value ([3]; 10 mg 10B/kg, 1 h) was 1.79 µg 10B/g, the “10B concentration, Spleen” value ([3]; 10 mg 10B/kg, 1 h) was 14.34 µg 10B/g and the “10B concentration, Tumor” value ([3]; 10 mg 10B/kg, 1 h) was 1.42 µg 10B/g and 1.42 ± 0.28 µg 10B/g. The “T/Bl (tumor to blood ratio)” value ([3]; 10 mg 10B/kg, 1 h) was 0.31, the “T/Br (tumor to normal contralateral brain ratio)” value ([3]; 10 mg 10B/kg, 1 h) was 5.99 and the “10B concentration, Blood” value ([3]; 10 mg 10B/kg, 3 h) was 1.26 µg 10B/g. The “10B concentration, Contralateral brain” value ([3]; 10 mg 10B/kg, 3 h) was 0.09 µg 10B/g, the “10B concentration, Heart” value ([3]; 10 mg 10B/kg, 3 h) was 0.29 µg 10B/g and the “10B concentration, Ipsilateral brain” value ([3]; 10 mg 10B/kg, 3 h) was 0.10 µg 10B/g. For the same substance, the “10B concentration, Liver” value ([3]; 10 mg 10B/kg, 3 h) was 4.13 µg 10B/g, the “10B concentration, Lung” value ([3]; 10 mg 10B/kg, 3 h) was 0.74 µg 10B/g and the “10B concentration, Muscle” value ([3]; 10 mg 10B/kg, 3 h) was 0.19 µg 10B/g. The “10B concentration, Skin” value ([3]; 10 mg 10B/kg, 3 h) was 0.45 µg 10B/g, the “10B concentration, Spleen” value ([3]; 10 mg 10B/kg, 3 h) was 16.07 µg 10B/g and the “10B concentration, Tumor” value ([3]; 10 mg 10B/kg, 3 h) was 0.85 µg 10B/g. For the same substance, the “T/Bl (tumor to blood ratio)” value ([3]; 10 mg 10B/kg, 3 h) was 0.69, the “T/Br (tumor to normal contralateral brain ratio)” value ([3]; 10 mg 10B/kg, 3 h) was 9.52 and the “10B concentration, Blood” value ([3]; 20 mg 10B/kg, 1 h) was 8.76 µg 10B/g. The “10B concentration, Contralateral brain” value ([3]; 20 mg 10B/kg, 1 h) was 0.24 µg 10B/g, the “10B concentration, Heart” value ([3]; 20 mg 10B/kg, 1 h) was 2.10 µg 10B/g and the “10B concentration, Ipsilateral brain” value ([3]; 20 mg 10B/kg, 1 h) was 0.31 µg 10B/g. For the same substance, the “10B concentration, Liver” value ([3]; 20 mg 10B/kg, 1 h) was 10.25 µg 10B/g, the “10B concentration, Lung” value ([3]; 20 mg 10B/kg, 1 h) was 6.11 µg 10B/g and the “10B concentration, Muscle” value ([3]; 20 mg 10B/kg, 1 h) was 2.35 µg 10B/g. For the same substance, the “10B concentration, Skin” value ([3]; 20 mg 10B/kg, 1 h) was 3.56 µg 10B/g, the “10B concentration, Spleen” value ([3]; 20 mg 10B/kg, 1 h) was 10.30 µg 10B/g and the “10B concentration, Tumor” value ([3]; 20 mg 10B/kg, 1 h) was 2.96 µg 10B/g. For the same substance, the “T/Bl (tumor to blood ratio)” value ([3]; 20 mg 10B/kg, 1 h) was 0.34, the “T/Br (tumor to normal contralateral brain ratio)” value ([3]; 20 mg 10B/kg, 1 h) was 13.21 and the “10B concentration, Blood” value ([3]; 20 mg 10B/kg, 3 h) was 1.54 µg 10B/g. For the same substance, the “10B concentration, Contralateral brain” value ([3]; 20 mg 10B/kg, 3 h) was 0.09 µg 10B/g, the “10B concentration, Heart” value ([3]; 20 mg 10B/kg, 3 h) was 0.39 µg 10B/g and the “10B concentration, Ipsilateral brain” value ([3]; 20 mg 10B/kg, 3 h) was 0.14 µg 10B/g. For the same substance, the “10B concentration, Liver” value ([3]; 20 mg 10B/kg, 3 h) was 5.40 µg 10B/g, the “10B concentration, Lung” value ([3]; 20 mg 10B/kg, 3 h) was 1.37 µg 10B/g and the “10B concentration, Muscle” value ([3]; 20 mg 10B/kg, 3 h) was 0.24 µg 10B/g. For the same substance, the “10B concentration, Skin” value ([3]; 20 mg 10B/kg, 3 h) was 0.57 µg 10B/g, the “10B concentration, Spleen” value ([3]; 20 mg 10B/kg, 3 h) was 8.44 µg 10B/g and the “10B concentration, Tumor” value ([3]; 20 mg 10B/kg, 3 h) was 1.47 µg 10B/g. The “T/Bl (tumor to blood ratio)” value ([3]; 20 mg 10B/kg, 3 h) was 1.12, the “T/Br (tumor to normal contralateral brain ratio)” value ([3]; 20 mg 10B/kg, 3 h) was 21.07 and the “10B concentration in blood” value ([3]; 30 mg 10B/kg, 1 h) was 14.21 ± 3.17 µg/mL. The “10B concentration, Blood” value ([3]; 30 mg 10B/kg, 1 h) was 14.21 µg 10B/g, the “10B concentration, Contralateral brain” value ([3]; 30 mg 10B/kg, 1 h) was 0.45 µg 10B/g and the “10B concentration, Heart” value ([3]; 30 mg 10B/kg, 1 h) was 3.45 µg 10B/g. For the same substance, the “10B concentration, Ipsilateral brain” value ([3]; 30 mg 10B/kg, 1 h) was 0.63 µg 10B/g, the “10B concentration, Liver” value ([3]; 30 mg 10B/kg, 1 h) was 10.33 ± 2.61 µg 10B/g and 10.33 µg 10B/g and the “10B concentration, Lung” value ([3]; 30 mg 10B/kg, 1 h) was 9.27 µg 10B/g. For the same substance, the “10B concentration, Muscle” value ([3]; 30 mg 10B/kg, 1 h) was 2.26 µg 10B/g, the “10B concentration, Skin” value ([3]; 30 mg 10B/kg, 1 h) was 7.25 µg 10B/g and the “10B concentration, Spleen” value ([3]; 30 mg 10B/kg, 1 h) was 3.77 µg 10B/g. For the same substance, the “10B concentration, Tumor” value ([3]; 30 mg 10B/kg, 1 h) was 6.65 µg 10B/g and 6.65 ± 0.25 µg 10B/g, the “T/Bl (tumor to blood ratio)” value ([3]; 30 mg 10B/kg, 1 h) was 0.49 and the “T/Br (tumor to normal contralateral brain ratio)” value ([3]; 30 mg 10B/kg, 1 h) was 15.27. For the same substance, the “10B concentration in blood” value ([3]; 30 mg 10B/kg, 3 h) was 2.35 ± 1.37 µg/mL, the “10B concentration, Blood” value ([3]; 30 mg 10B/kg, 3 h) was 2.35 µg 10B/g and the “10B concentration, Contralateral brain” value ([3]; 30 mg 10B/kg, 3 h) was 0.14 µg 10B/g. For the same substance, the “10B concentration, Heart” value ([3]; 30 mg 10B/kg, 3 h) was 0.56 µg 10B/g, the “10B concentration, Ipsilateral brain” value ([3]; 30 mg 10B/kg, 3 h) was 0.35 µg 10B/g and the “10B concentration, Liver” value ([3]; 30 mg 10B/kg, 3 h) was 4.19 ± 1.79 µg 10B/g and 4.19 µg 10B/g. The “10B concentration, Lung” value ([3]; 30 mg 10B/kg, 3 h) was 2.26 µg 10B/g, the “10B concentration, Muscle” value ([3]; 30 mg 10B/kg, 3 h) was 0.32 µg 10B/g and the “10B concentration, Skin” value ([3]; 30 mg 10B/kg, 3 h) was 1.06 µg 10B/g. The “10B concentration, Spleen” value ([3]; 30 mg 10B/kg, 3 h) was 5.68 µg 10B/g, the “10B concentration, Tumor” value ([3]; 30 mg 10B/kg, 3 h) was 2.91 µg 10B/g and the “T/Bl (tumor to blood ratio)” value ([3]; 30 mg 10B/kg, 3 h) was 1.58. The “T/Br (tumor to normal contralateral brain ratio)” value ([3]; 30 mg 10B/kg, 3 h) was 23.09, the “clearance from normal tissues” value ([3]; 1 vs 3 h) was “rapid clearance from normal tissues” and the “10B Concentrations, Brain (Table 1)” value ([3]; 1 h, used for dose estimation) was 0.3 μg 10B/g. The “10B Concentrations, Tumor (Table 1)” value ([3]; 1 h, used for dose estimation) was 1.4 μg 10B/g.

From publication PMC7349888, “Synthesis and Evaluation of Dodecaboranethiol Containing Kojic Acid (KA-BSH) as a Novel Agent for Boron Neutron Capture Therapy” (Cells, 2020)
